Measured values as given in US6040300A, “Method of preventing colon cancer with vitamin D3 analogues” (Arch Development Corporation, priority 1995, dated 2000).
Entries after “also recorded” stand apart in the source; their conditions may differ.

How the values were obtained:
[1] = Serum 1α,25(OH)2 D3 levels (competitive protein-binding assay, calf thymus receptor); format: in vivo, Male albino Fisher-344 rats; settings: all test groups
Description: Male albino Fisher-344 rats, initially weighing ~90-100 g, were used in these studies. On arrival, the animals were quarantined for 1 wk and then randomly divided into the following six test groups: groups 1 and 2, standard vitamin D-sufficient diet; groups 3 and 4, standard diet supplemented with RO24-5531 (2.50 nmol/kg of feed); and groups 5 and 6, standard vitamin D-sufficient diet. […] Next, the rats in groups 2,4 and 6 were given subcutaneous injections of azoxymethane (AOM, Sigma Chemical Co., St. Louis, Mo.), 15 mg/kg body wt once a wk for 2 wks, while the rats in groups 1,3 and 5 received AOM-vehicle (saline). […]
All rats were sacrificed in the non-fasting state after 34 wks on these protocols between 9 a.m. and 11 a.m. and sera obtained for measurement of calcium, phosphate, 25(OH)D3 and 1α,25(OH)2 D3 levels. […] All specimens were evaluated by a pathologist who was unaware of the dietary or AOM treatment history. […]
Serum calcium and phosphorus were measured by standard colorimetric methods (Kessler and Wolfman, Clin. Chem. 10:686-703, 1964). Serum 25(OH)D3 levels were measured by radioimmunoassay, using a kit and procedure supplied by Incstar (Stillwater, Minn.). […]
Results are expressed as means ±SE of n determinations. Data were analyzed by Fisher's exact test (two-tailed) or analysis of variance (ANOVA) as appropriate (Snedecor and Cochran, Statistical Methods, 1980). […]

[2] = test system: NMU-induced breast cancers; settings: cited from earlier work
[3] = test system: c-myc mRNA; settings: HL-60 cells; cited from earlier work
[4] = Body weight / growth and tolerability of the animals; format: in vivo; settings: for Final Wt.: mean ± S.E.M.
Description: (§1) Male albino Fisher-344 rats, initially weighing ~90-100 g, were used in these studies. On arrival, the animals were quarantined for 1 wk and then randomly divided into the following six test groups: groups 1 and 2, standard vitamin D-sufficient diet; groups 3 and 4, standard diet supplemented with RO24-5531 (2.50 nmol/kg of feed); and groups 5 and 6, standard vitamin D-sufficient diet. […] Next, the rats in groups 2,4 and 6 were given subcutaneous injections of azoxymethane (AOM, Sigma Chemical Co., St. Louis, Mo.), 15 mg/kg body wt once a wk for 2 wks, while the rats in groups 1,3 and 5 received AOM-vehicle (saline).
(§2) Groups 1 and 2 were then maintained on the standard diet for an additional […]. Groups 3 and 4 were maintained on the RO24-5531 supplemented diets for the initial five wks and then switched to the standard diet without RO24-5531 for an additional 29 wks (initiation arm), whereas groups 5 and 6 were maintained on the standard diet without supplemental RO24-5531 for the initial five wks and then switched to the RO24-5531 supplemented diet for an additional 29 wks (post-initiation arm).
(§3) All rats were sacrificed in the non-fasting state after 34 wks on these protocols between 9 a.m. and 11 a.m. and sera obtained for measurement of calcium, phosphate, 25(OH)D3 and 1α,25(OH)2 D3 levels. The rats' colons were removed, opened, washed with normal saline and examined macroscopically for the presence of tumors. Resected tumors were weighed, and were fixed in 10% buffered formalin for microscopic examination. After formalin fixation, tissue specimens were paraffin-embedded, sectioned, and stained with hematoxylin and eosin as described previously (Sitrin et al., 1991), for light microscopic examination. All specimens were evaluated by a pathologist who was unaware of the dietary or AOM treatment history. Macroscopic and microscopic lesions were classified as either benign (adenoma) or malignant (adenocarcinoma).
(§4) Results are expressed as means ±SE of n determinations. Data were analyzed by Fisher's exact test (two-tailed) or analysis of variance (ANOVA) as appropriate (Snedecor and Cochran, Statistical Methods, 1980). Values of p <0.05 were considered statistically significant.

[5] = Serum phosphorus (standard colorimetric method); format: in vivo, Male albino Fisher-344 rats; settings: for Serum Levels P: mean ± S.E.M.
Description: as §1, §2, §3
(§5) Serum calcium and phosphorus were measured by standard colorimetric methods (Kessler and Wolfman, Clin. Chem. 10:686-703, 1964). Serum 25(OH)D3 levels were measured by radioimmunoassay, using a kit and procedure supplied by Incstar (Stillwater, Minn.). Serum 1α,25(OH)2 D3 levels were assayed by a non-equilibrium competitive protein-binding assay based on a calf thymus receptor, using a kit and procedure supplied by Incstar, as previously described (Sitrin et al., 1991).
as §4

[6] = test system: HL-60 cells; settings: cited from earlier work
[7] = Serum 25(OH)D3 levels (radioimmunoassay); format: in vivo, Male albino Fisher-344 rats; settings: for Serum Levels 25(OH)D3: mean ± S.E.M., n=6
Description: as §1, §2, §3, §5, §4

[8] = test system: AOM-induced colonic tumors; experiment: AOM-induced colonic tumor formation with dietary RO24-5531; format: in vivo, Male albino Fisher-344 rats; settings: for inhibition of development of colonic tumors / colon cancer incidence: AOM model, dietary supplementation
Method: FIG. 2. Study Protocol: Rats (12 each, in groups 1,3 and 5; 20 each, in groups 2,4 and 6) were fed either standard diet without RO24-5531 (open bars), or RO24-5531 supplemented diets (shaded bars) for the initial five weeks of the study. During this period rats were given two weekly subcutaneous injections of either AOM (15 mg/kg body wt/wk) (groups 2,4 or 6), or AOM-vehicle (saline) (groups 1,3, or 5) at the end of weeks 2 and 3 (arrows). At the end of five weeks, rats in groups 1-2 were continued on the standard diet without RO24-5531; groups 3-4 were switched to standard diet without RO24-5531; and groups 5-6 were switched to the RO24-5531 supplemented diet for another 29 weeks.
RO24-5531 was provided by Hoffmann LaRoche Inc. (Nutley, NJ; EP 580968). All diets were obtained from ICN Biochemicals (Cleveland, Ohio). Prior to pelleting, RO24-5531 or vehicle (0.1% ethanol) were mixed with the standard vitamin D-sufficient diet by ICN Biochemicals. This diet has been described in detail (Sitrin et al., 1991) and contained a normal content of calcium and phosphorus, 0.87% and 0.60%, respectively, with 2.2 IU of vitamin D3 /g of feed.
as §1, §2, §3, §4

[9] = breast tumor study; cited from earlier work
[10] = group 4: RO24-5531/SD (initiation arm), AOM
[11] = group 6: SD/RO24-5531 (post-initiation arm), AOM
[12] = group 3: RO24-5531/SD, no AOM, 12 animals
[13] = group 4: RO24-5531/SD (initiation arm), AOM, 20 animals
[14] = group 4: RO24-5531/SD (initiation arm), AOM, 20 animals, p < 0.05 vs group 2
[15] = group 5: SD/RO24-5531, no AOM, 12 animals
[16] = group 6: SD/RO24-5531 (post-initiation arm), AOM, 20 animals

## C=C1/C(=C\C=C2/CCC[C@]3(C)C([C@H](C)CC#CC(O)(C(F)(F)F)C(F)(F)F)=CC[C@@H]23)C[C@@H](O)C[C@@H]1O [RO24-5531, 26,26,26,27,27,27-hexafluoro-1α,25-dihydroxy-16-ene-23-yne-cholecalciferol]
[1]
  effect on serum 1α,25(OH)2 D3 levels: no differences were observed
[2]; fed after administration of carcinogen
  protection against NMU-induced breast cancers: protected against the development of NMU-induced breast cancers
[2]; in vivo
  breast tumor incidence: lessened tumor incidence
  breast tumor latency: extended breast tumor latency
  breast tumor number: lessened tumor incidence as well as tumor number
[3]
  c-myc mRNA expression: decrease c-myc mRNA expression in HL-60 cells
[4]; RO24-5531 supplemental dietary regimens, all groups
  influence on growth of the animals: neither the RO24-5531 supplemental dietary regimens, nor the administration of carcinogen influenced the growth of the animals
[4]; dietary supplementation
  tolerability: well-tolerated by the animals
[4]; group 3: RO24-5531 2.50 nmol/kg of feed for initial five wks, then SD, no AOM
  Final Wt.: 470 ± 20 g
[4]; group 4: RO24-5531/SD (initiation arm), AOM treated
  Final Wt.: 465 ± 16 g
[4]; group 5: SD/RO24-5531 (supplement for last 29 wks), no AOM
  Final Wt.: 511 ± 30 g
[4]; group 6: SD/RO24-5531 (post-initiation arm), AOM treated
  Final Wt.: 499 ± 28 g
[5]; group 3: RO24-5531/SD, no AOM, n=10
  Serum Levels P: 10.2 ± 0.7 mg/dL
[5]; group 4: RO24-5531/SD (initiation arm), AOM, n=5
  Serum Levels P: 9.9 ± 0.8 mg/dL
[5]; group 5: SD/RO24-5531, no AOM, n=6
  Serum Levels P: 9.2 ± 0.3 mg/dL
[5]; group 6: SD/RO24-5531 (post-initiation arm), AOM, n=11
  Serum Levels P: 9.0 ± 0.8 mg/dL
[5]; groups 4 and 6
  effect on serum levels of phosphorus: significantly altered the serum levels of calcium, phosphorus or 25(OH)D3
[6]
  induction of differentiation: induction of differentiation
  inhibition of proliferation: inhibit proliferation of HL-60 cells; also recorded: inhibition of proliferation
[7]; group 3: RO24-5531/SD, no AOM
  Serum Levels 25(OH)D3: 31 ± 2 ng/mL
[7]; [10]
  Serum Levels 25(OH)D3: 29 ± 2 ng/mL
[7]; group 5: SD/RO24-5531, no AOM
  Serum Levels 25(OH)D3: 33 ± 4 ng/mL
[7]; [11]
  Serum Levels 25(OH)D3: 36 ± 5 ng/mL
[7]; groups 4 and 6
  effect on serum levels of 25(OH)D3: significantly altered the serum levels of calcium, phosphorus or 25(OH)D3
[8]; listed as 1α, 25-Dihydroxy-16-ene-23-yne-26, 27-hexafluorocholecalciferol
  inhibition of development of colonic tumors / colon cancer incidence: reduced the incidence of colon cancer in rats
[8]; listed as 1α,25-dihydroxy-16-ene-23-yne-26,27-hexafluorocholecalciferol
  inhibition of development of colonic tumors / colon cancer incidence: can inhibit the development of colonic tumors in mammals; also recorded: can inhibit the development of colonic tumors in the AOM model
[8]; AOM-vehicle, RO24-5531 supplemented diets (groups 3, 5)
  development of tumors: None of the control animals given injections of the AOM-vehicle and fed either the standard or RO24-5531 supplemented diets developed tumors
[8]; group 3: RO24-5531/SD, no AOM
  Tumors/Tumor Bearing rat: 0
[8]; [12]
  No. of Tumor-Bearing Rats: 0
  No. of Tumors, Benign No.: 0
  No. of Tumors, Malignant No.: 0
  No. of Tumors, Total No.: 0
[8]; group 4, initiation arm
  incidence of colonic tumors vs group 2: significant decreases in the incidence of colonic tumors
  tumor type: all of the colonic tumors in group 4 (initiation arm) were found to be benign, i.e., adenomas
[8]; [10]
  Tumor Wt.: 102 ± 28 mg
  Tumors/Tumor Bearing rat: 1.0
[8]; [13]
  No. of Tumors, Benign No.: 3
  No. of Tumors, Malignant No.: 0
[8]; [14]
  No. of Tumor-Bearing Rats: 3
  No. of Tumors, Total No.: 3
[8]; group 4: RO24-5531/SD (initiation arm), AOM, p < 0.05 vs group 2 (50%)
  Tumor-Bearing Rats (% of Incidence): 15%
[8]; group 5: SD/RO24-5531, no AOM
  Tumors/Tumor Bearing rat: 0
[8]; [15]
  No. of Tumor-Bearing Rats: 0
  No. of Tumors, Benign No.: 0
  No. of Tumors, Malignant No.: 0
  No. of Tumors, Total No.: 0
[8]; group 6, post-initiation arm
  tumor type: all of the colonic tumors were found to be adenomas
[8]; group 6, post-initiation arm, p >0.05
  number of tumors vs AOM alone animals: a trend for a decrease in the number of tumors; also recorded: did not reach statistical significance
[8]; [11]
  Tumor Wt.: 109 mg
  Tumors/Tumor Bearing rat: 1.0
[8]; [16]
  No. of Tumor-Bearing Rats: 6
  No. of Tumors, Benign No.: 6
  No. of Tumors, Malignant No.: 0
  No. of Tumors, Total No.: 6
[8]; group 6: SD/RO24-5531 (post-initiation arm), AOM, group 2: 50%
  Tumor-Bearing Rats (% of Incidence): 30%
[8]; post-initiation arm, like its initiation arm counterpart
  AOM-induced adenocarcinomas: complete absence of AOM-induced adenocarcinomas
[9]
  serum Ca2+ levels: without causing elevated levels of serum Ca^2+
